Results reported in ChEMBL document CHEMBL4152347 (J Med Chem, 2018).
≈ marks a conversion by molar mass, not a printed value.

Tests used:
[1] = AUC (0 to infinity) in Sprague-Dawley rat at 5 mg/kg, po; type: ADME, organism-based; set-up: dose 5 mg/kg, time infinity, route oral; conditions: in vivo
[2] = Volume of distribution at steady state in Sprague-Dawley rat at 1 mg/kg, iv; type: ADME, organism-based; conditions: in vivo, read-out: Vdss
[3] = Half life in human hepatocytes at 0.5 uM after 1 hr in presence of NADPH by LC-MS/MS analysis; type: ADME, cell-based, Hepatocyte
Gag-Pol polyprotein [4] = molecular target: Gag-Pol polyprotein (Human immunodeficiency virus type 1 group M subtype B (isolate HXB2)(HIV-1), UniProt P04585, V362I)
[5] = Tmax in beagle dog at 5 mg/kg, po administered via gavage as solution; type: ADME, organism-based, Canis lupus familiaris; conditions: in vivo
[6] = Oral bioavailability in CD1 mouse at 5 mg/kg; type: ADME, organism-based; conditions: in vivo
[7] = AUC (0 to infinity) in beagle dog at 5 mg/kg, po administered via gavage as solution; type: ADME, organism-based, Canis lupus familiaris; set-up: dose 5 mg/kg, route oral, time infinity; conditions: in vivo
[8] = Oral bioavailability in MDR1 a/b knockout mouse at 5 mg/kg administered via gavage; type: ADME, organism-based; conditions: in vivo
[9] = AUC (0 to infinity) in CD1 mouse at 1 mg/kg, iv; type: ADME, organism-based; set-up: dose 1 mg/kg, route intravenous, time infinity; conditions: in vivo
[10] = Cmax in beagle dog at 5 mg/kg, po administered via gavage as microsuspension along with high fat meal; type: ADME, organism-based, Canis lupus familiaris; set-up: dose 5 mg/kg, route oral; conditions: in vivo
[11] = Half life in cynomolgus monkey liver microsomes at 0.5 uM after 1 hr in presence of NADPH by LC-MS/MS analysis; type: ADME, Macaca fascicularis, microsome
[12] = Protein binding in dog serum at 53 nM after 1 hr by ultracentrifugation assay; type: ADME, cell-free, Canis lupus familiaris; conditions: read-out: PB (converted)
[13] = molecular target: Human immunodeficiency virus type 1 Gag protein (Human immunodeficiency virus 1, UniProt Q77YG1)
Description: Binding affinity to wild type HIV1 gag polyprotein containing viral like particle

[14] = Stability of the compound in human liver microsomes in presence of […]; type: ADME, microsome
[15] = Cmax in CD1 mouse at 5 mg/kg, po administered via gavage; type: ADME, organism-based; set-up: dose 5 mg/kg, route oral; conditions: in vivo
[16] = Solubility of compound in fasted state simulated intestinal fluid at pH 6.5; type: physicochemical
Salmonella typhimurium = experiment: Mutagenicity in Salmonella typhimurium TA100 in absence of Aroclor 1254-induced rat liver S9 fraction at up to 1600 ug/plate; type: toxicity, organism-based; conditions: salmonella enterica subsp. enterica serovar typhimurium
[17] = Tmax in CD1 mouse at 5 mg/kg, po administered via gavage; type: ADME, organism-based; conditions: in vivo
[18] = Tmax in beagle dog at 5 mg/kg, po administered via gavage as microsuspension pre-treated with 6 ug/kg, im pentagastrin 15 to 30 mins before compound dosing; type: ADME, organism-based, Canis lupus familiaris; conditions: in vivo
[19] = AUC (0 to infinity) in Sprague-Dawley rat at 1 mg/kg, iv; type: ADME, organism-based; set-up: dose 1 mg/kg, time infinity, route intravenous; conditions: in vivo
[20] = Cmax in beagle dog at 5 mg/kg, po administered via gavage as solution; type: ADME, organism-based, Canis lupus familiaris; set-up: dose 5 mg/kg, route oral; conditions: in vivo
[21] = Cmax in MDR1 a/b knockout mouse at 5 mg/kg, po administered via gavage; type: ADME, organism-based; set-up: dose 5 mg/kg, route oral; conditions: in vivo
[22] = Protein binding in rat serum at 53 nM after 1 hr by ultracentrifugation assay; type: ADME, cell-free; conditions: read-out: PB (converted)
in vivo = conditions: Sprague-Dawley, rat, po, 5 mg/kg
[23] = Oral bioavailability in beagle dog at 5 mg/kg administered via gavage as microsuspension pre-treated with 6 ug/kg, im pentagastrin 15 to 30 mins before compound dosing; type: ADME, organism-based, Canis lupus familiaris; conditions: in vivo
[24] = Total plasma clearance in CD1 mouse at 1 mg/kg, iv; type: ADME, organism-based
[25] = Tmax in beagle dog at 5 mg/kg, po administered via gavage as microsuspension along with high fat meal; type: ADME, organism-based, Canis lupus familiaris; conditions: in vivo
[26] = Tmax in Sprague-Dawley rat at 5 mg/kg, id; type: ADME, organism-based; conditions: in vivo
[27] = Cmax in beagle dog at 5 mg/kg, po administered via gavage as microsuspension pre-treated with 6 ug/kg, im pentagastrin 15 to 30 mins before compound dosing; type: ADME, organism-based, Canis lupus familiaris; conditions: in vivo
[28] = test system: Gag-Pol polyprotein (Human immunodeficiency virus type 1 group M subtype B (isolate HXB2)(HIV-1)), P04585 [V370A]; conditions: Human immunodeficiency virus 1
Gag-Pol polyprotein [29] = molecular target: Gag-Pol polyprotein (Human immunodeficiency virus type 1 group M subtype B (isolate HXB2)(HIV-1), UniProt P04585, V370A)
[30] = Tmax in Sprague-Dawley rat at 5 mg/kg, po; type: ADME, organism-based; conditions: in vivo
Canis familiaris = experiment: AUC (0 to infinity) in beagle dog at 5 mg/kg, po administered via gavage as microsuspension along with high fat meal; type: ADME, organism-based, Canis lupus familiaris; set-up: dose 5 mg/kg, time infinity, route oral; conditions: in vivo
[31] = Oral bioavailability in beagle dog at 5 mg/kg administered as solution; type: ADME, organism-based, Canis lupus familiaris; conditions: in vivo

With `C=C(C)[C@@H]1CC[C@]2(NCCN3CCS(=O)(=O)CC3)CC[C@]3(C)[C@H](CC[C@@H]4[C@@]5(C)CC=C(c6ccc(C(=O)O)cc6)C(C)(C)[C@@H]5CC[C@]43C)[C@@H]12` [BMS-955176] the AUC(0-inf) [1] was 14.2 µM·h, the Vd [2] was 1.1 L/kg and the half-life at 0.5 µM [3] was greater than 2 h. For the same compound, the Kd (Gag-Pol polyprotein [4]) was 4.3 nM, the Tmax [5] was 12.7 h and the bioavailability [6] was 26.8%. For the same compound, the AUC(0-inf) [7] was 29.4 µM·h, the bioavailability [8] was 45% and the AUC(0-inf) [9] was 21.6 µM·h. It also gave a Cmax [10] of 10.2 µM, a half-life at 0.5 µM [11] of 0.183 h and a fraction unbound at 1 h, 0.053 µM [12] of 0.154. For the same compound, the Kd [13] was 3.2 nM, the Stability [14] was “Stable” and the Cmax [15] was 2.79 µM. For the same compound, the solubility [16] was 280 µg/mL (≈ 405 µM), the Activity (Salmonella typhimurium) was “Non-Toxic” and the Tmax [17] was 3 h. For the same compound, the Tmax [18] was 10.5 h, the AUC(0-inf) [19] was 11.1 µM·h and the Cmax [20] was 0.56 µM. It also gave a Cmax [21] of 4.02 µM, a fraction unbound at 1 h, 0.053 µM [22] of 0.141 and an AUC(0-t) at 6 h (in vivo) of 4.13 µM·h. The bioavailability [23] was 26%, the clearance [24] was 1.1 mL/min/kg and the Tmax [25] was 10.5 h. For the same compound, the Tmax [26] was 1 h, the Cmax [27] was 4.43 µM and the T1/2 [28] was 0.6 h. For the same compound, the Kd (Gag-Pol polyprotein [29]) was 6.5 nM, the Tmax [30] was 6 h and the AUC (Canis familiaris) was 643 µM·h. It also gave a bioavailability [31] of 9%.
